Measured values as given in a melting point compilation (Tetko et al.; mined from patent text by program, amines drawn as free bases though some values may be those of a salt).

Row | melting point [°C] | Structure (SMILES)
1 | 112 to 114 | COc1ccc(OC)c2c1CCC(O)(CC(=O)O)C2 (centres undefined)
2 | 188 to 190 | COc1ccc(-c2cc(-c3sc(N)nc3-c3cccc(C)n3)ccn2)cc1
3 | 134 | COC(=O)c1cc(NC(=O)c2cc(NC(=O)c3cc(NC(=O)OC(C)(C)C)cn3C)cn2C)cn1C
4 | 143 | C=CC(=O)Nc1cc2c(N(C(C)=O)c3ccc(F)c(Cl)c3)ncnc2cc1OCCCN1CCOCC1
5 | 135 to 138 | OCCCOc1ccc(-n2nc(-c3ccccc3)c3cccnc32)cc1
6 | 76.5 to 77 | O=c1occc2ccc(Oc3ccc(Cl)cc3)cc12
7 | 69 to 71 | C=CC(=O)NCCCCCCCCCCCCOc1ccccc1
8 | 122 to 124 | COC(=O)c1ccccc1SCOc1ccc(Cl)cc1Cl
9 | 95 to 96 | COC(=O)CCC(=C1SCCCS1)c1ccc(Oc2ccccc2)cc1
10 | 160 to 162 | CCC1c2ccc(F)n2-c2ccc(Br)cc2N1S(=O)(=O)c1ccc(O)cc1 (centres undefined)
11 | 85 to 86 | CCc1cccc(C(O)c2nc(OC)cc(OC)n2)c1N (centres undefined)
12 | 144 to 145 | CCCCCCn1c(=O)[nH][nH]c1=O
13 | 148 to 149 | CC(C)C1(COC(C)(C)C)Cc2cc(OCC(=O)O)c(Cl)c(Cl)c2C1=O (centres undefined)
14 | 311 to 313 | O=c1cc2c(n[nH]1)-c1ccccc1SCC2
15 | 75 | O=C(c1cccs1)c1ccc(Cl)cc1Cl
16 | 247 to 248 | CSc1nc(-c2ccccn2)n(-c2ccc(C)cc2)c(=O)c1C#N
17 | 144 | COc1ccccc1-c1oc2cccc3c2c1C=CC3=O
18 | 214 to 216 | CC1(C)OC(=O)Nc2ccc(-c3cc(Br)cc(OC(F)(F)F)c3)cc21
19 | 204 to 206 | CSc1nnc2c3cnn(C)c3ncn12
20 | 123 to 125 | COc1c(N2C[C@]3(C)CC[C@]3(N)C2)c(F)cc2c(=O)c(C(=O)O)cn([C@@H]3C[C@@H]3F)c12

Row | melting point [°C] | Structure (SMILES)
21 | 158 to 160 | Cc1c2n(c3ccccc13)C(=O)C(Cc1cccnc1)CC2 (centres undefined)
22 | 223 | NS(=O)(=O)c1cccc(-c2noc(-c3cnn4ccc(-c5ccc(Cl)cc5)nc34)n2)c1
23 | 114 to 115 | CCOC(=O)C(=CNc1cccc(N2CCN(C)CC2)n1)C(=O)OCC
24 | 278 to 283 | COc1ccc(C(=O)NC(=O)Nc2ccc3c(c2)NC(=O)/C3=C/c2ccc(Cl)cc2)cc1
25 | 163 to 165 | O=C1c2ccccc2C(=O)N1OCc1c[nH]cn1
26 | 117 to 119 | Cc1nc(C#CCCc2nc3ccccc3o2)cn1C
27 | 219 | O=c1c2ccccc2ccn2ccnc12
28 | 138 to 139 | O=C(Nc1cc(C(F)(F)F)ccc1N1CCCCCC1)c1ccncc1
29 | 114 | O=C(NC[C@@H]1CCNC[C@H]1O)c1cc(Cl)cc2c1OCCCO2
30 | 126 to 129 | CCCCc1ncc(CO)c(NCc2ccc(-c3ccccc3)c(-c3nnnn3C(c3ccccc3)(c3ccccc3)c3ccccc3)c2)n1
31 | 211 to 212 | NC(=O)c1ccc(NC(=O)C2CCCN(Cc3ccccc3)C2)cc1 (centres undefined)
32 | 123 to 124 | CCC(O)(c1ccccc1)c1cc(OC)c(OC)c(OC)c1 (centres undefined)
33 | 115 to 118 | COc1cc(N)c2nccc(C)c2c1Oc1ccc(Cl)cc1Cl
34 | 228 to 229 | O=C(O)c1ccc(OCCC2CC(=O)N(c3ccc(Cl)cc3)C2)cc1 (centres undefined)
35 | 121 to 123 | CCCC[C@H](NC(=O)[C@H](CC(C)C)NC(=O)c1ccc(C(F)(F)F)cc1)C(=O)CSCc1ccco1
36 | 115 to 117 | COC(=O)c1cc(C)c(C(OC(=O)C(C)c2ccc3cc(OC)ccc3c2)c2cc(-n3ccnc3)ccc2C)c(C)c1 (centres undefined)
37 | 111 to 113 | CCOCCOc1cccc2oc(-c3cccs3)cc(=O)c12
38 | 252 to 254 | CCOC(=O)c1cn2c3c(c(Cl)c(F)cc3c1=O)C(=O)CC2C (single isomer, unassigned; (-))
39 | 189 to 191 | Oc1c(Cl)cc(C2=NCCO2)cc1Cl
40 | 62 to 63 | COc1cccc2c1C(OC)(OC)C=CC2=O

Row | melting point [°C] | Structure (SMILES)
41 | 208 to 210 | Cc1ccc(C2CCN(Cc3ccc(COc4cccc5c4CN(C4CCC(=O)NC4=O)C5=O)cc3)CC2)cc1 (centres undefined)
42 | 70 to 72 | CCN(CC)CC(O)CNC(=O)Cn1ncc(-c2ccccc2)c1-c1ccccc1 (centres undefined)
43 | 193 to 196 | Cc1cccc(-c2cn(C)cc(-c3cccc(C(F)(F)F)c3)c2=S)c1
44 | 144 to 146 | CCC(=O)NC1Cc2ccccc2C(c2ccccc2)C1 (centres undefined)
45 | 69.5 to 76 | CC(=O)Oc1c(C)c(C)c2c(c1C)CCC(C)(C(=O)OCCNCc1cc(N3CCCC3)nc(N3CCCC3)n1)O2 (centres undefined)
46 | 141 to 143 | CCOc1cc2c(cc1OC)C(c1ccc(C(=O)OC)cc1)=N[C@@H]1CCOC[C@H]21
47 | 167 to 170 | N=C(N)c1ccc2cc(OC(=O)C3CCC(CNC(=O)OCc4ccccc4)CC3)ccc2c1 (centres undefined)
48 | 176 to 177 | O=C1N[C@H](Cc2ccc(C(F)(F)F)cc2)[C@H](c2ccc(Cl)nc2)O1 (racemic)
49 | 108 to 110 | N#C/C=C/C1CN(C(c2ccccc2)c2ccccc2)C1
50 | 170 to 173 | Cc1ccc(S(=O)(=O)N2CCC[C@H]2C(=O)N2c3ccc(Cl)c(Cl)c3C[C@@H]2C)cc1
51 | 176 to 178 | CN(C)c1cc(-c2ccnc(Nc3cccc(Cl)c3)n2)ccn1
52 | 236 to 237 | CCc1cc(Br)c2c(=O)oc(=O)[nH]c2c1
53 | 190 to 193 | Cc1c(-c2cccnc2)n(CCOc2ccc(C(=O)O)cc2)c2ccccc12
54 | 186 to 187 | CCCCC(=CC(N)C(=O)O)CP(=O)(O)O (centres undefined)
55 | 167 to 170 | Cc1cc(N(C)C)c2c(N)c(C(N)=O)sc2n1
56 | 74 to 77 | CN(CCCS(=O)CCCC(F)(F)C(F)(F)F)CCOc1ccc(C2=C(c3ccccc3)CCCc3ccccc32)cc1 (centres undefined)
57 | 141 | CC(C)c1nc(N)oc1-c1ccc(F)c2ccccc12
58 | 108 to 112 | COc1c(C)c2c(c(OS(=O)(=O)c3ccc(C)cc3)c1CC1=C(C)C(O)CC1)C(=O)OC2 (centres undefined)

Second part, the compound before the results:

Row | Structure (SMILES) | melting point [°C]
59 | CN(C)CCc1ccc(N)cc1 | 40
60 | CC(C)(C)OC(=O)n1cc(C=C(Br)Br)c2ccccc21 | 101 to 104
61 | COc1cc(C2(C)COc3c(OC)cc(C=O)cc32)ccc1O (centres undefined) | 162 to 165
62 | Cc1c(NC(=O)C(CSC(=O)C2CCCCC2)Cc2ccccc2)cccc1C(=O)O (centres undefined) | 117 to 120
63 | CCOC(=O)C=Cc1cc(-c2csc(-c3ccc(OCC)c(OCC)c3)n2)cc(C(=O)OCOC)c1OCOC | 94 to 96
64 | O=C(O)c1ccc(OCCCCc2cc(-c3ccc(C(F)(F)F)cc3)no2)cc1 | 170 to 171
65 | O=C1Nc2ccccc2CC(C(=O)Nc2ccc(Br)cc2)C1=O (centres undefined) | 226 to 228
66 | CC(=O)Nc1cccc(/C=C/C(=O)N2CC(CCl)c3c2cc(NC(=O)OCC2c4ccccc4-c4ccccc42)c2ccccc32)c1 (centres undefined) | 208 to 209
67 | CCOCC(=O)OCC(=O)C1(O)CCC2C3CC(C)C4=CC(=O)C=CC4(C)C3C(O)CC21C (centres undefined) | 229
68 | CCOc1nc(-c2ccc(NC(=O)NCc3cccnc3)cc2)ccc1C(=O)NC | 200
69 | Cc1nn([N+](=O)[O-])cc1-c1ncc([N+](=O)[O-])n1C | 148
70 | Cc1ccc(CC(C)NCC(O)c2ccccc2)cc1 (centres undefined) | 74 to 94
71 | CCc1nc(C(=O)c2ccc(Cl)cc2Cl)c(C=O)n1C(CC)CC | 85 to 86
72 | CCCCCCCC(=O)c1cc2sc3sccc3c2s1 | 130 to 131
73 | CC(=O)c1ccc(C=CC(=O)NCCO)cc1 | 124 to 125
74 | Cc1cc(N)c2cc(NC(=O)C=Cc3ccccc3C(F)(F)F)ccc2n1 | 272 to 273
75 | CCCCc1nc2c(N)nc3ccccc3c2n1CCS(C)(=O)=O | 226 to 228
76 | S=C(NCn1nnc2ccccc21)NCn1nnc2ccccc21 | 205 to 206
77 | O=C(C[C@@H]1COCCO1)N[C@H]1CC[C@H](CCN2CCC(c3cccc4c3CCO4)CC2)CC1 | 190
78 | CCCCCCCCCCCCc1nnn(C(CCCC)C(=O)Nc2c(OC)cc(OC)cc2OC)n1 (centres undefined) | 152 to 154
79 | Brc1ccc(OCCC(c2ccccc2)c2ccccc2)cc1 | 70 to 71

Row | Structure (SMILES) | melting point [°C]
80 | CCCCCCCCCCCCCCCCNc1ccc(C(=O)NS(=O)(=O)c2ccccc2)cc1 | 136 to 138
81 | Cc1ccc(S(=O)(=O)c2ccccc2S(=O)(=O)N=CN(C)C)cc1 | 178
82 | CC(C)NC(=S)N1CCc2[nH]cnc2C1C(C)C (centres undefined) | 203
83 | O=S(=O)(NCc1ccnc2ccccc12)c1ccc(Cc2ccccc2)cc1 | 106 to 107
84 | COc1ccc(C(=NO)c2ccc(Cl)cc2)c(O)c1 | 159
85 | CCc1cccc(C(=O)c2nc(OC)cc(OC)n2)c1N | 122 to 123
86 | O=c1[nH][nH]c(=O)c2c(O)c3c(Br)cccc3nc12 | 280 to 281
87 | CC(C)(C)OC(=O)NCCCn1ncc2cc(Br)ccc2c1=O | 130 to 132
88 | Cc1ccc(S(=O)(=O)N2CCC3(C=Cc4ccccc43)CC2)cc1 | 168 to 170
89 | COc1cc(Cc2cnc(N[N+](=O)[O-])[nH]c2=O)ccn1 | 194 to 196
90 | COc1cc2c(cn1)CCC(=CN(C)C)C2=O | 102 to 104
91 | COc1ccc(N(C(=O)Nc2cc(C)c(S(=O)(=O)C[N+](=O)[O-])c(C)c2)c2ccc(OC)cc2)cc1 | 150 to 151
92 | OCC1OC(n2cnc3cncnc32)CC1F (centres undefined) | 89
93 | Cc1nn(-c2ccccn2)c2nc3ccccc3c(N)c12 | 210 to 213
94 | CN(C)C1(c2ccccc2)CCC(CNC(=O)NCCCc2ccccc2)CC1 (centres undefined) | 100 to 110
95 | Cc1ccc(S(=O)(=O)n2cc([C@@H]3C[C@H]3C=O)c3cc(C#N)ccc32)cc1 (relative stereo) | 165 to 167
96 | O=C(/C=C/c1ccc(O)c(OC(F)(F)F)c1)/C=C/c1ccc(O)c(OC(F)(F)F)c1 | 103 to 105
97 | OC(Cn1cncn1)(c1ccc(Cl)cc1)C1(n2cnc(Cl)n2)CC1 (centres undefined) | 156
98 | O=C1c2c(Cl)cccc2-n2cnc(-c3nc(C4CCC4)no3)c2[C@@H]2CCCN12 | 183 to 185
99 | C=C(C(=O)c1ccc(Cl)cc1)c1ccccc1 | 42
